Measurements published in patent US20070292967A1, “Assay for Ligands of the Ecdysone Receptor” (COMMONWEALTH SCIENTIFIC AND INDUSTRIAL RESEARCH OR, priority 2003, published 2007).
Several values for one entry are separate records, joined by “and”; a condition that tells them apart may be missing. Equal values may be shown once.

Experiments:
[1] = target: MpLBD, recombinant LBD heterodimer of ecdysone receptor from Myzus persicae; experiment: equilibrium binding of [3H]ponasterone A to MpLBD; conditions: Langmuir isotherm fit
Source text: (§1) Data fitting using a computer algorithm (KalcidaGraph v3.09, Synergy Software) allowed us to obtain Kd values for each receptor-radioligand complex and to ascertain [LBD]tot. Comparison of the [LBD]tot value with the protein concentration of each purified sample indicated the proportion of the recombinant receptor LBD heterodimer molecules that was functional. Testing Fluorescent and Reference Ecdysteroids As Ligands Using a Radioligand-based Assay

[2] = target: HaLBD, recombinant LBD heterodimer of ecdysone receptor from Helicoverpa armigera; experiment: equilibrium binding of [3H]ponasterone A to HaLBD; conditions: Langmuir isotherm fit
Source text: as §1

LcLBD = experiment: removal of bound [3H]ponasterone A from LcLBD by dialysis; assay type: binding, Lucilia cuprina; conditions: dialysis at room temperature
Source text: The same equilibrium binding experiments indicated the properties of functional receptor LBD heterodimer molecules in each preparation to be as follows: LcLBD, 21%; MpLBD, 16%; BtLBD, 8.4%. The value for HaLBD was not determined directly, but by indirect methods it was assigned a provisional value of 15%. The relatively low activity values agree with published observations for the full-length Drosophila melanogaster receptor, for which Sage et al. (1986) remark that ‘. . . the binding activity of unloaded receptor is inherently labile when subjected to standard protein purification techniques. Therefore, the ecdysteroid receptor needs to remain loaded with hormone during most manipulations’. While we agree that a much higher proportion of functional receptor protein can be obtained by conducting the purification in the presence of an ecdysteroid ligand (data not shown), the resulting receptor-ligand complex is not suitable for use in ligand-binding assays. Moreover, bound ecdysteroid ligands are slow to dissociate from the recombinant receptor LBDs. […] We therefore routinely purified the recombinant receptor LBD heterodimers in the absence of any ligands, and corrected the concentration values of the purified LBD heterodimer preparations to account for the proportion of non-functional heterodimer that was present. […]

[3] = target: LcLBD, recombinant LBD heterodimer of ecdysone receptor from Lucilia cuprina; experiment: equilibrium binding of [3H]ponasterone A to LcLBD; conditions: Langmuir isotherm fit
Source text: as §1

[4] = target: BtLBD, recombinant LBD heterodimer of ecdysone receptor from Bemisia tabaci; experiment: equilibrium binding of [3H]ponasterone A to BtLBD; conditions: Langmuir isotherm fit
Source text: as §1

[5] = tested on: Lepidotera versus Diptera; conditions: selectivity between insect orders; cited from earlier work

LcLBD, sequence (O18531 442-677 limits assumed): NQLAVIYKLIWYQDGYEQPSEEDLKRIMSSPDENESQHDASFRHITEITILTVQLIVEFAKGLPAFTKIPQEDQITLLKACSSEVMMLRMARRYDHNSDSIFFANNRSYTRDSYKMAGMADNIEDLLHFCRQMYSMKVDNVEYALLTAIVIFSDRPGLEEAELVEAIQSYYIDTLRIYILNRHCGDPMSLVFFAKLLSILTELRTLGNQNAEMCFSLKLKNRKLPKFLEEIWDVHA
LcLBD, recombinant LBD heterodimer of ecdysone receptor from Lucilia cuprina, sequence (O18531 442-677 limits assumed, one chain of several): as the sequence (O18531 442-677 limits assumed) above

Row | Compound | Kd [1] | Kd [2] [nM] | half-life of the radioligand-receptor complex (LcLBD) | Kd [3] [nM] | Kd [4] | effectiveness against Lepidotera relative to Diptera [5]
1 | [24,25,26,27-^3H(N)]ponasterone A [[^3H]ponasterone A] | 0.7 nM and 0.72 nM and ~0.7 nM | 2.53 ± 0.12 | about 10 h | 1 ± 0.1 | 1.21 nM and 1.2 nM | 
2 | CCc1ccc(C(=O)NN(C(=O)c2cc(C)cc(C)c2)C(C)(C)C)cc1 [RH-5992] |  |  |  |  |  | two to three orders of magnitude more effective
